# From patent US11419902B2, “Compositions comprising bacterial strains” (4D Pharma Research Limited, priority 2018, dated 2022)
# Columns and labels:
# Format in all cases: cell-based
# [1] = tested on: neuron specific enolase (NSE)/enolase 2; test: Suppression of neuron specific enolase (NSE)/enolase 2 (Example 18); conditions: FIG. 57
# MAP2 = MAP2 expression in SH-SY5Y cells (qPCR, immunostaining, immunoblotting); conditions: undifferentiated SH-SY5Y cells, 10% bacterial supernatant, vs untreated cells
# Description: (§1) SH-SY5Y were plated in 10 cm petri dishes a density of 2×10^6 cells. After 24 h cells were treated in differentiation medium (growth medium containing 1% FBS without RA) with 10% bacteria supernatants or YCFA+, 10 uM RA, 200 uM hexanoic acid or 200 uM valproic acid, for 17 hrs. There after representative images were taken using phase contrast EVOS XL core microscope at 40×10.65 magnification. Cells were collected, and total RNA was isolated according to RNeasy mini kit protocol (Qiagen). cDNAs were made using the high capacity cDNA reverse transcription kit (Applied Biosystems). Gene expression was measured using qPCR. GAPDH was used as internal control. Fold change was calculated according to the 2^(−ΔΔct) method.
# Cells were seeded onto 8-well chamber slides (Marienfeld Laboratory Glassware) at 5×10^4 cells/well overnight and were treated with 10% bacterial supernatant for 24 h. […]
# SH-SY5Y cells cultured under the indicated conditions described above, treated with MRx0029 for 24 h and then lysed in RIPA buffer containing cocktail of protease inhibitors (Roche Diagnostics, UK). […] The blots were then incubated with the appropriate horseradish peroxidase (HRP)-conjugated secondary antibody, and proteins were detected by chemiluminescence detection kit (Pierce Biotechnology, Rockford, Ill.). […]
# DRD2 = DRD2 expression in SH-SY5Y cells; conditions: vs untreated cells
# Description: as §1
# The inventors measured the change in DRD2 expression in neuroblastoma cells using the same method as described in Example 1.
# IL-8 = IL-8 secretion by the HT29 cell line co-incubated with bacteria (ELISA); conditions: differentiated HT29 cells, bacteria 10^7 CFU 2 hr, with THP1 conditioned media or alone
# Description: HT29 cells were plated in 12 well plates at a density of 200,000 cells/well. Cells were being differentiated for 10 days (media change every 2 days). The day of the experiment cells were placed in the anaerobic hood and washed with anaerobic equilibrated HANKs solution. Then 900 ul of growth media (without FBS and antibiotics) was added to the cells. Bacteria cells were resuspended in of growth media (without FBS and antibiotics) and were then added at 10^7 CFU in total in 100 ul. Cells were co-incubated with bacteria for 2 hr in an anaerobic hood. Afterwards cells were washed in growth media without FBS but containing antibiotics. Cells were left to rest in 1 ml of THP1 condition media for 24 h. After 24 h incubation the supernatant was collected and spun down at 10,000 g for 3 min and 4° C. Samples were frozen at −80° C. until further use.
# THP1 condition media: THp1 were seeded on T25 flask at density of 4×10^6/flask. Cells were treated in RPMI media (contain 2 mM L-glutamine without FBS) with 1 ug/ml LPS or LPS+5 mM ATP (ATP added 3 hours after LPS). Cells were left to rest for 24 hr. Thereafter Condition Media (CM) was collected by spinning down the cells at 250 g for 5 min and RT. Different CMs were used to treat HT29 Cells. A small aliquot was frozen at […] for ELISA. […]
substance,measurement,setting,value
Megasphaera massiliensis MRx0029,neuron specific enolase (NSE)/enolase 2,[1],statistically-significant effect suppressing
same,expression of MAP2,MAP2,significantly increased the expression of MAP2
same,expression of DRD2,DRD2,significantly decreased the expression of DRD2
same,IL-8 secretion,IL-8,increased IL-8 secretion
